The half-life is how long it takes for the measured level to halve. One may read the inhibition as the relative decrease from the control value, in per cent. As usually defined, the Cmax is the maximum level reached in the sampled fluid or tissue. A word on the AUC(0-inf): it is the area under the concentration-time curve extrapolated to infinity. Read a high AUC(0-inf) as more exposure. As usually defined, the Vd is a proportionality between amount in the body and measured concentration, not a real space. A low value points to little distribution into tissue. One may read the clearance as the volume of plasma or blood freed of the substance per unit of time. Low readings indicate a low capacity for elimination, high ones a high capacity for elimination.

Data set [1] deals with Candida albicans. The experiment in a line: Reversal of fluconazole mediated azole resistance Candida albicans 904 assessed as downregulation of CDR2 at 32 ug/ml in presence of fluconazole by RT-PCR. The conditions noted are these: dose 32.0 µg/ml. It counts as functional, organism-based.
In data set [2] the test system is Candida albicans. Briefly: Reversal of fluconazole mediated azole resistance Candida albicans 904 assessed as downregulation of ERG11 at 32 ug/ml in presence of fluconazole by RT-PCR. It counts as functional, organism-based. The conditions noted are these: dose 32.0 µg/ml.
A short description of data set [3]: Metabolic stability in rat liver microsomes assessed as half life in presence of NADPH cofactor under shaking condition for 10 mins measured after 5 to 60 mins by LC-MS/MS analysis. It counts as ADME, Microsome. The conditions noted are these: time 15-70 min. On the technique in general: Liver microsomes are a subcellular fraction often used to study metabolism.

A short description of data set [4]: Metabolic stability in rat liver microsomes assessed as microsomal intrinsic clearance in presence of NADPH cofactor under shaking condition for 10 mins measured after 5 to 60 mins by LC-MS/MS analysis. In kind it is ADME, Microsome. The conditions noted are these: time 15-70 min.
Data set [5] in a line: Metabolic stability in rat liver microsomes assessed as intrinsic clearance in presence of NADPH cofactor under shaking condition for 10 mins measured after 5 to 60 mins by LC-MS/MS analysis. It counts as ADME, Microsome. The conditions noted are these: time 15-70 min.
The nature of data set [6]: Metabolic stability in rat liver microsomes assessed as compound remaining in presence of NADPH cofactor under shaking condition for 10 mins measured after 60 mins by LC-MS/MS analysis. It counts as ADME, Microsome. The conditions noted are these: time 70 min, read-out: Stability.
The next data set addresses CYP2C9 (Homo sapiens, UniProt P11712). Briefly: Inhibition of CYP2C9 in human liver microsome at 10 uM using diclofenac as substrate incubated for 10 mins in presence of NADPH cofactor and fluconazole by LC-MS/MS analysis. In kind it is ADME. The conditions noted are these: liver microsomes, probe diclofenac.
Data set [7] in a line: Cmax in Sprague-Dawley rat at 10 mg/kg, iv measured up to 24 hrs by LC/MS/MS analysis. It counts as ADME, organism-based. Also noted: dose 10 mg/kg, time < 24 hrs, route iv. The conditions noted are these: in vivo.
A short description of data set [8]: AUC (0 to infinity) in Sprague-Dawley rat at 10 mg/kg, iv measured at upto 24 hrs by LC/MS/MS analysis. It counts as ADME, organism-based. Also noted: dose 10 mg/kg, time < 24 hrs, route iv. The conditions noted are these: in vivo.
Data set [9] in a line: Volume of distribution in Sprague-Dawley rat at 10 mg/kg, iv measured upto 24 hrs by LC/MS/MS analysis. The conditions noted are these: in vivo. In kind it is ADME, organism-based.
Data set [10] in a line: Clearance in Sprague-Dawley rat at 10 mg/kg, iv measured upto 24 hrs by LC/MS/MS analysis. The conditions noted are these: in vivo. In kind it is ADME, organism-based.
Data set [11] relates to Rattus norvegicus. The experiment in a line: In vivo antifungal activity against azole resistant Candida albicans 904 infected in rat assessed as colonization of fungal cells at 10 mg/kg, ip administered for 5 days, qd by PAS and HE staining based microscopy. In kind it is functional, organism-based. The conditions noted are these: time 5.0 day.
The test system of data set [12] is Rattus norvegicus. Briefly: In vivo antifungal activity against azole resistant Candida albicans 904 infected in rat assessed as aggregation of inflammatory leukocytes at 10 mg/kg, ip administered for 5 days, qd by PAS and HE staining based microscopy. In kind it is functional, organism-based. The conditions noted are these: time 5.0 day.

Calls of active or inactive are those of the source. The calls are words filed in the database; no cut-off is given here.

Chain of CYP2C9 (P11712 whole entry): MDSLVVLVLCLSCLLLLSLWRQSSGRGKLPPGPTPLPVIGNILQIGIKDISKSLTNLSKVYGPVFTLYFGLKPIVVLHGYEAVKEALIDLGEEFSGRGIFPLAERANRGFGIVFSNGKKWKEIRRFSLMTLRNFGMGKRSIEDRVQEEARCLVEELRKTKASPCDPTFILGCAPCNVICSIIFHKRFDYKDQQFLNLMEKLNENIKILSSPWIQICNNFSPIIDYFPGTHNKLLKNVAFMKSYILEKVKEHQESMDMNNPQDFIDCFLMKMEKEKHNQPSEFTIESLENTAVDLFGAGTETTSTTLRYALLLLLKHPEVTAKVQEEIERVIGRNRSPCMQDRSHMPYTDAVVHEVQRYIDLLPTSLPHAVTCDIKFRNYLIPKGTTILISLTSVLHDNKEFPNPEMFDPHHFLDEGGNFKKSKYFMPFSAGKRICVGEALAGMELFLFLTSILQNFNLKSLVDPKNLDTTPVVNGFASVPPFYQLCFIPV

For `CCNC(=O)c1noc(-c2cc(-c3ccc(C)cc3)c(O)cc2O)c1-c1ccc(CN2CCOCC2)cc1`, the result with Candida albicans [1], with Candida albicans [2], in the data set on Rattus norvegicus [11] and in the data set on Rattus norvegicus [12] was Active. The half-life in [3] was determined as 30.6 min. In addition, the CLint in data set [4] amounted to 45.3 µL/min/mg; in data set [5] it was 81.6 mL/min/kg. The remaining at 1.167 h in [6] came out at 23.6%. Besides, the inhibition at 10 min, 10 µM at CYP2C9 was 56.1%. The peak concentration (Cmax) in [7] turned out to be 3440 ng/mL. The same molecule showed an AUC(0-inf) in [8] of 3030 ng·h/mL. For the same molecule, the Vd in [9] was found to be 11.2 L/kg. The molecule also registered a clearance in data set [10] of 102 mL/min/kg.

The record behind these values is ChEMBL document CHEMBL5154804, “Species-Selective Targeting of Fungal Hsp90: Design, Synthesis, and Evaluation of Novel 4,5-Diarylisoxazole Derivatives for the Combination Treatment of Azole-Resistant Candidiasis” (J Med Chem, 2022).
